For 2 compounds, remaining activity results are on record in US9738660B2, “Selective inhibitors for protein kinases and pharmaceutical composition and use thereof” (National Chiao Tung University, priority 2014, dated 2017).

The remaining activity is the signal under treatment as a percentage of the control signal.

Like-named read-outs stand apart in the source and are kept apart here.

Among the targets are LCK (Homo sapiens, UniProt P06239); CDK2 (Homo sapiens, UniProt P24941); CHEK2 (Homo sapiens, UniProt O96017); FGFR1 (Homo sapiens, UniProt P11362).
Holding throughout (assay): Kinase Profiler, residual kinase activity
What all share (type): biochemical
Holding throughout (settings): read-out: percentage of the remaining kinase activity

A further assay has as its target T1, RPS6KB1 (Homo sapiens, UniProt P23443).
T1 construct: purchased Research Biology Corp. (http://www.reactionbiology.com)

The target of a further assay is PIM1 (Homo sapiens, UniProt P11309). The source says: (§1) Kinase Profiler services provided by […]. (http://www.reactionbiology.com) were used to analyze the data of the 9 type-S protein kinase inhibitors against the 40 types of protein kinases.
In the next assay the target is DYRK1A (Homo sapiens, UniProt Q13627).
Description: as §1

The target in another assay is T2, FGFR2 (Homo sapiens, UniProt P21802).
T2 construct: purchased Research Biology Corp. (http://www.reactionbiology.com)
Description: as §1

In the next assay the target is T3, EGFR (Homo sapiens, UniProt P00533).
T3 construct: purchased Research Biology Corp. (http://www.reactionbiology.com)
Description: as §1

In a further assay the target is ALK (Homo sapiens, UniProt Q9UM73).
Description: as §1

For the next assay, the target named is BTK (Homo sapiens, UniProt Q06187).
Description: as §1

The next assay deals with T4, OXSR1 (Homo sapiens, UniProt O95747).
T4 construct: purchased Research Biology Corp. (http://www.reactionbiology.com)
Description: as §1

In a further assay the target is AKT1 (Homo sapiens, UniProt P31749).
Description: as §1

A further assay addresses T5, STK11 (Homo sapiens, UniProt Q15831).
T5 sequence (Q15831 1-433): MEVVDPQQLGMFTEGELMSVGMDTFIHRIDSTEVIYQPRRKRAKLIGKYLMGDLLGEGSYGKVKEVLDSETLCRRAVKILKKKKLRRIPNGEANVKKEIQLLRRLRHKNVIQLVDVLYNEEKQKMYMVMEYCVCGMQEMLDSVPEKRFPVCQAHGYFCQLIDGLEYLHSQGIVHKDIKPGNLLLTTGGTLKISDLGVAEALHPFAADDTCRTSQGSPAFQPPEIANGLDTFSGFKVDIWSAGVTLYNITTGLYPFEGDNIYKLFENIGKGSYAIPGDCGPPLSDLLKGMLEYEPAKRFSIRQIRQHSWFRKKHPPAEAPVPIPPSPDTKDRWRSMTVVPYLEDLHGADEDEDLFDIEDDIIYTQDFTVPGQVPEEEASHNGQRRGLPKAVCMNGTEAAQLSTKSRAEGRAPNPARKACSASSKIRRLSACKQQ
T5 sequence (Q7RTN6 1-431 partner): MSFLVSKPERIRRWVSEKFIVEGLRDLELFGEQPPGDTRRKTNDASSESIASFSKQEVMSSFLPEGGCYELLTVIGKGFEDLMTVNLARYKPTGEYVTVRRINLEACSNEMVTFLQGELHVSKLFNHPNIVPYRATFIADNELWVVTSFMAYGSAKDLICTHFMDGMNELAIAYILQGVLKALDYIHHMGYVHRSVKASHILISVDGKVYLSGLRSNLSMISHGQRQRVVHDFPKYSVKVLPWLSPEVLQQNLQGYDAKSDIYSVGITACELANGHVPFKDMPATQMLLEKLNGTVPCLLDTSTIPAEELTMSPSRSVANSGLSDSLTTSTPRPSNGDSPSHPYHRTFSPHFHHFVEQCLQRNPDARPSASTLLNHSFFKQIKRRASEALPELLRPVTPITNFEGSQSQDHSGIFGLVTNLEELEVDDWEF
T5 sequence (Q9Y376 1-341 partner): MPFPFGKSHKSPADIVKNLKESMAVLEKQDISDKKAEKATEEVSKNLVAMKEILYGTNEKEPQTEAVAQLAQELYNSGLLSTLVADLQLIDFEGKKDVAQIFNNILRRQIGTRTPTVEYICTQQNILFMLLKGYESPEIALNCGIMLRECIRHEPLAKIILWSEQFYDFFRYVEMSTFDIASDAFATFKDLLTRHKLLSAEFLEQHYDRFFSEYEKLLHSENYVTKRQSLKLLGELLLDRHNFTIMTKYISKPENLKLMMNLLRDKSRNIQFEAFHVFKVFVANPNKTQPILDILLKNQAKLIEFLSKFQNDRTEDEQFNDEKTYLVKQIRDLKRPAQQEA
Description: as §1

A further assay has as its target T6, MAPKAPK2 (Homo sapiens, UniProt P49137).
T6 construct: purchased Research Biology Corp. (http://www.reactionbiology.com)

Sequence of LCK (P06239 whole entry): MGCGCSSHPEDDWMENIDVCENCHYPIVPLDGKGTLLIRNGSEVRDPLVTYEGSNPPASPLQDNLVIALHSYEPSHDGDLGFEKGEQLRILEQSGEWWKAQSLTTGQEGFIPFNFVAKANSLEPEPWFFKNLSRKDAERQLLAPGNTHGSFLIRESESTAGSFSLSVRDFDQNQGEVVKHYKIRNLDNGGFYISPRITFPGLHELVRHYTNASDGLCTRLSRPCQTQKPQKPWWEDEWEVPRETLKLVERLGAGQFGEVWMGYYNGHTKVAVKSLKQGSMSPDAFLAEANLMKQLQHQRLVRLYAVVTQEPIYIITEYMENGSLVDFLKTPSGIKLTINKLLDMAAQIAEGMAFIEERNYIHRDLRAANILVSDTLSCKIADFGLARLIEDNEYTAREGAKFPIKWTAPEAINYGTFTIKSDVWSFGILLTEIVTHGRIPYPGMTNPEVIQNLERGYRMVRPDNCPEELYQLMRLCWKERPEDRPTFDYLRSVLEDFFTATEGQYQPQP
Sequence of AKT1 (P31749 whole entry): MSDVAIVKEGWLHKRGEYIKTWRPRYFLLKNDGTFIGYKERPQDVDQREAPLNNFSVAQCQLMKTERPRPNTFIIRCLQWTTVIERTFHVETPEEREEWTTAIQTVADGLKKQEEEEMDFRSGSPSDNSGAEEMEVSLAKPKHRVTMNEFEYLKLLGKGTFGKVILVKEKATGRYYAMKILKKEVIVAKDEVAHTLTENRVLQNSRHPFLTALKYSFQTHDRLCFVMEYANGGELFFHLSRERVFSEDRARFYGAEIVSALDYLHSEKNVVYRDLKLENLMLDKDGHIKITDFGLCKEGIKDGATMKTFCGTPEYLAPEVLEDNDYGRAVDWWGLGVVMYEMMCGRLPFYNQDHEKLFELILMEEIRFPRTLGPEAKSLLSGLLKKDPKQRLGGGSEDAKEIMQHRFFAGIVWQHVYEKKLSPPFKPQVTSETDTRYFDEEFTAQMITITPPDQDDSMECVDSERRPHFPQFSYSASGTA
T3 sequence (P00533 25-1210): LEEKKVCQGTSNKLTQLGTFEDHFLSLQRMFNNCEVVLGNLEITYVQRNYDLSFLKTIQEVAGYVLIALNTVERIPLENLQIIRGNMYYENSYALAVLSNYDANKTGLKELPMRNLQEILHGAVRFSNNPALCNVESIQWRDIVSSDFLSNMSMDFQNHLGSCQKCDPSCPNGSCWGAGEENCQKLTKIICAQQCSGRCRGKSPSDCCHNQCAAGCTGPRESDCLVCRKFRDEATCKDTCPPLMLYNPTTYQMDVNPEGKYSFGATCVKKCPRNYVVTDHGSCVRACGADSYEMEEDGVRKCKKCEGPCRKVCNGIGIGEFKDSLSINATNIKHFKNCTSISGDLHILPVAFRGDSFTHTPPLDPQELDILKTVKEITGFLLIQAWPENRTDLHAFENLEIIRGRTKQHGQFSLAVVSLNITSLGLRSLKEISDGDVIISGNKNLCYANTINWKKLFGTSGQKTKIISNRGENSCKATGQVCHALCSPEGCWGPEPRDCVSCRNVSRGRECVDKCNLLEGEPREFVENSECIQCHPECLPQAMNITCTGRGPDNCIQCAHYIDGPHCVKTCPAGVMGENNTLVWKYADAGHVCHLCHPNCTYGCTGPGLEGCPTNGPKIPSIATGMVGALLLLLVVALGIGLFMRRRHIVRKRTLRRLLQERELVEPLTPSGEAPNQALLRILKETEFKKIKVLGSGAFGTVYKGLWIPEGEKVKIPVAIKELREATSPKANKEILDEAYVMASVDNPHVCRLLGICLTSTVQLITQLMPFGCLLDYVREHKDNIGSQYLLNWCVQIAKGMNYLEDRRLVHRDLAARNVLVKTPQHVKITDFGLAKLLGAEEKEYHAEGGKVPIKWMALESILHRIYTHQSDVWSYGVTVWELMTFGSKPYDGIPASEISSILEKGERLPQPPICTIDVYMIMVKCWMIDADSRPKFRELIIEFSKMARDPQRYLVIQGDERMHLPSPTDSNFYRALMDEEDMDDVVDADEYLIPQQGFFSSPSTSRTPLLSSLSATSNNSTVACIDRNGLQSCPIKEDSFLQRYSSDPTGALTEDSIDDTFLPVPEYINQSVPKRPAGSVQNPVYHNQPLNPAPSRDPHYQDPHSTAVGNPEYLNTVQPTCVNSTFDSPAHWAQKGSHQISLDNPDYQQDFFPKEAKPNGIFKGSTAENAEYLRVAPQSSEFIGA
T2 sequence (P21802 22-821): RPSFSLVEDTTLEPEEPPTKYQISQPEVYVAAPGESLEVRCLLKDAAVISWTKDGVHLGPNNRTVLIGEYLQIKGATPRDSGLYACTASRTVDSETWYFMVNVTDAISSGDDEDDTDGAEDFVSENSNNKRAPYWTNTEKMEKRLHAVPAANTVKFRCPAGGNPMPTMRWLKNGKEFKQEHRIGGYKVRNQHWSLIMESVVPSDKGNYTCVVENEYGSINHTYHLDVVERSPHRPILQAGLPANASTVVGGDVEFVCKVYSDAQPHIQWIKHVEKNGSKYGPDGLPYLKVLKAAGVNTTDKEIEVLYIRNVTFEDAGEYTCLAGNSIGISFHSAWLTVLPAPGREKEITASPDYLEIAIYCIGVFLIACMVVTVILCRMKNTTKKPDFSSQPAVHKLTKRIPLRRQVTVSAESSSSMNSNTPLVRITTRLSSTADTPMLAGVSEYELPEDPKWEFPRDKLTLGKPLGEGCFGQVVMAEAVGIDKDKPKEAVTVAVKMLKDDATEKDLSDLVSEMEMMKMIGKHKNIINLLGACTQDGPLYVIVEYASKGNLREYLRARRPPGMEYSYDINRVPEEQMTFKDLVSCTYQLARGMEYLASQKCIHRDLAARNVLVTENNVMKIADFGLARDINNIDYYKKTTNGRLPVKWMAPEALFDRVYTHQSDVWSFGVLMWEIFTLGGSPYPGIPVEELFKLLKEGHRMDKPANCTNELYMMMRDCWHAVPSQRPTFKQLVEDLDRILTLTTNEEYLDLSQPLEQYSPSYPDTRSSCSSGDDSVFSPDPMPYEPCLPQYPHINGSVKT
T4 sequence (O95747 whole entry): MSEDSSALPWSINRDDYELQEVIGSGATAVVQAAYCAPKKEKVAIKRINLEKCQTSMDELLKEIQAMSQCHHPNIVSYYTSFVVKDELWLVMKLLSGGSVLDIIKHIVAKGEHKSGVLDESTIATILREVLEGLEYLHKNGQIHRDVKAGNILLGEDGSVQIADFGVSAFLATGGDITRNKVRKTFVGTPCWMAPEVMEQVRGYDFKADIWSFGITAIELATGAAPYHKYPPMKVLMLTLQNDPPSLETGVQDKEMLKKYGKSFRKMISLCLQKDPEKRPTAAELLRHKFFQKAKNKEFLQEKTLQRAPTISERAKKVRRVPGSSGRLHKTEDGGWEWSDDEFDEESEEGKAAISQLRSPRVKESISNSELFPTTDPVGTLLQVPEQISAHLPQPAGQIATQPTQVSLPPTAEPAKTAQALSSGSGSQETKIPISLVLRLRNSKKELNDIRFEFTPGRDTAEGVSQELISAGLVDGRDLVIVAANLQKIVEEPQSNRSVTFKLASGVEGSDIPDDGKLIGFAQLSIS
T1 sequence (P23443 whole entry): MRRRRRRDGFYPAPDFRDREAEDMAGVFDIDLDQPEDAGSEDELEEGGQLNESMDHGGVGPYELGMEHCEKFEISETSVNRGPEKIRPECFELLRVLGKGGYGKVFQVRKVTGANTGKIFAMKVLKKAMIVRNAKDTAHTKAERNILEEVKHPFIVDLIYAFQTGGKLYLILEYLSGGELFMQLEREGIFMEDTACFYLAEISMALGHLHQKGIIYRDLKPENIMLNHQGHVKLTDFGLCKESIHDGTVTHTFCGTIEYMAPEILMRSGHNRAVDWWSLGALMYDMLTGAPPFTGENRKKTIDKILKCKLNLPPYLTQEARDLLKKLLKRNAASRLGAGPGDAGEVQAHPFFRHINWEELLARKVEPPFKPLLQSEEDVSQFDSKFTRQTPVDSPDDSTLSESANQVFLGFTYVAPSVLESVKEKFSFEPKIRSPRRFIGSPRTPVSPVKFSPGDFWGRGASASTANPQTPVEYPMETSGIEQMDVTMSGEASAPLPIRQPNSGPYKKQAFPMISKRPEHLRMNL
Sequence of PIM1 (P11309 whole entry): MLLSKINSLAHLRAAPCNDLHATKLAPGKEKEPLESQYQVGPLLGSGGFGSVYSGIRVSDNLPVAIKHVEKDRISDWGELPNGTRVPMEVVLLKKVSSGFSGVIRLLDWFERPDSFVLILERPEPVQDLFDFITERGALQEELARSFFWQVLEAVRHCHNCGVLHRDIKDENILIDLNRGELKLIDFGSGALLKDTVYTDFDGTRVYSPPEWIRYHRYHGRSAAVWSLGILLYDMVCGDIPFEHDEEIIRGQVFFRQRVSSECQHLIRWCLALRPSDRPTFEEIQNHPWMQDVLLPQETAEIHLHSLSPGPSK
Sequence of CHEK2 (O96017 whole entry): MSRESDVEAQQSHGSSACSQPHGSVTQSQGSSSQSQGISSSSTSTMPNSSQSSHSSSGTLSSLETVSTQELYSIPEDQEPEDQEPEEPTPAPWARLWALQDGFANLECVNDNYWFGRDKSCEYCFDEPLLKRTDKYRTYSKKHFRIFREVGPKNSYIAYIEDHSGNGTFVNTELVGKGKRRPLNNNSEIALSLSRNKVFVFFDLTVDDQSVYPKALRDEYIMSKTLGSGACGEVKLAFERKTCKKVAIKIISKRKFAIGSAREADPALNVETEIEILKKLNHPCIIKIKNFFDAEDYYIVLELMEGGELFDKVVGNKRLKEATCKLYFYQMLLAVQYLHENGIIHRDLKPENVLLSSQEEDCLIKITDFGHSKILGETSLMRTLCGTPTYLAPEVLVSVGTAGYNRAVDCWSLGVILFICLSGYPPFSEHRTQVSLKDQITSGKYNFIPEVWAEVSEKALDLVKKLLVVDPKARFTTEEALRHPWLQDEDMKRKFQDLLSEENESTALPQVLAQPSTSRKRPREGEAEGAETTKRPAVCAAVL

`COC1C(N(C)CCOc2cccc([N+](=O)[O-])c2)CC2OC1(C)n1c3ccccc3c3c4c(c5c6ccccc6n2c5c31)C(=O)NC4` (stereo not drawn) [Compound 8]: the remaining activity at 0.5 µM on LCK came out at 24%; on CDK2 it was 12.3%; on RPS6KB1, 11.8%; on CHEK2 it was 46.7%; at PIM1, 24.6%; at DYRK1A, 25.3%. Moreover, the remaining activity at 0.5 µM amounted to 31.4% at FGFR2; 102% on EGFR; 19.5% on ALK; 53.9% at BTK; 102% at OXSR1; 52.3% on AKT1. In addition, the remaining activity at 0.5 µM on STK11 is 101%; on FGFR1 it was 30.1%; on MAPKAPK2, 94.6%.
As to `COC1C(N(C)Cc2ccc(-c3ccccc3)cc2)CC2OC1(C)n1c3ccccc3c3c4c(c5c6ccccc6n2c5c31)C(=O)NC4` (stereo not drawn) [Compound 9], the remaining activity at 0.5 µM stood at 14% on LCK (LCK, inhibitor at 500 nM); 8.2% at CDK2 (CDK2, inhibitor at 500 nM); 11.1% at RPS6KB1 (RPS6KB1, inhibitor at 500 nM); 37.7% at CHEK2 (CHEK2, inhibitor at 500 nM); 21.8% on PIM1 (PIM1, inhibitor at 500 nM); 18.5% at DYRK1A (DYRK1A, inhibitor at 500 nM). Further, the remaining activity at 0.5 µM on FGFR2 (FGFR2, inhibitor at 500 nM) is 26.5%; on EGFR (EGFR, inhibitor at 500 nM) it was 96.2%; at ALK (ALK, inhibitor at 500 nM), 17.6%; at BTK (BTK, inhibitor at 500 nM) it was 55.8%; on OXSR1 (OXSR1, inhibitor at 500 nM) it was 94.7%; at AKT1 (AKT1, inhibitor at 500 nM), 46.9%. The remaining activity at 0.5 µM at STK11 (STK11, inhibitor at 500 nM) turned out to be 91.9%; at FGFR1 (FGFR1, inhibitor at 500 nM), 25.7%; at MAPKAPK2 (MAPKAPK2, inhibitor at 500 nM) it was 92.5%.
